Experimental data: patent EP4778931A1, “ULK1 INHIBITOR, PREPARATION METHOD THEREFOR AND USE THEREOF” (Dovetree Medicines Unus, Inc., priority 2023, dated 2025)

molecular target: T1, ULK1 (Homo sapiens, UniProt O75385); assay: Inhibition of ULK1 protein activity (phosphorylation function), ADP-Glo method; format: biochemical; settings: ADP-Glo; ULK1 (Promega), ATP and MBP substrate, 60 min at room temperature; 10 concentrations, maximum 10 µM; read-out: ULK1 IC50
T1 construct: purchased Promega V3521
T1 sequence (O75385 1-1050): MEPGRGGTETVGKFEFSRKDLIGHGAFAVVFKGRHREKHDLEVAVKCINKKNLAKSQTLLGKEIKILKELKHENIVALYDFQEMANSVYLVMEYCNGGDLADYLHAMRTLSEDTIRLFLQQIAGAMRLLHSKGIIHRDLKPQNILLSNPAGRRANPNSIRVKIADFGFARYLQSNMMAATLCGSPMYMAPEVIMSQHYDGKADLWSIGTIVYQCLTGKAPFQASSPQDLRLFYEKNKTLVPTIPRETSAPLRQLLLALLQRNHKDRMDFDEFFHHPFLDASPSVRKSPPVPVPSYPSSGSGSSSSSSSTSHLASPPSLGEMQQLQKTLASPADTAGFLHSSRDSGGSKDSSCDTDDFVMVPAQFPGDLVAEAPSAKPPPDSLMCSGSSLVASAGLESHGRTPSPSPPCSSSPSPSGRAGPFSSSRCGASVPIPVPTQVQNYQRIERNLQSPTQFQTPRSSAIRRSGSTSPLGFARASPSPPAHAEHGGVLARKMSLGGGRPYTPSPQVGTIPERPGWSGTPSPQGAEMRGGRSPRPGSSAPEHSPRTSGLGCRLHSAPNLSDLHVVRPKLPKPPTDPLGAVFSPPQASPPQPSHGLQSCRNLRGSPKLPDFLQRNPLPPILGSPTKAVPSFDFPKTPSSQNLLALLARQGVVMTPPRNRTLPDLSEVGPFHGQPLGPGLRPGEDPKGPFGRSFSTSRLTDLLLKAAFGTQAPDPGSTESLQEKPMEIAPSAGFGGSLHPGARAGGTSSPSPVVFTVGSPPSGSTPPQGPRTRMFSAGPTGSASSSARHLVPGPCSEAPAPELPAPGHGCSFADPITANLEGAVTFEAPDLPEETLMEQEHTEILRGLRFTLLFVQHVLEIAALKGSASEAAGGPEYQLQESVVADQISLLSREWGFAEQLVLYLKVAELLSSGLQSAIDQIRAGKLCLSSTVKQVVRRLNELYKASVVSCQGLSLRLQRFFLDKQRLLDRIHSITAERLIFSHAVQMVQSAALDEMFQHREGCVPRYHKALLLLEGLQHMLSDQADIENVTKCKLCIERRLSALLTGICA
Protocol: In this experiment, the inhibitory effect of a compound on the phosphorylation function of ULK1 was detected by ADP-Glo method. The inhibitory effect of the compound of the present disclosure on the ULK1 target was evaluated based on IC50.
Compound formulation: Using an ECHO (Beckman, ECHO650), the compound was serially diluted 3-fold in DMSO in a 384-well plate (PE, 6007290). A total of 10 concentration points were set, with the maximum concentration of the compound being 10 µM, and 50 nL per well. Positive control wells and negative control wells were added with 50 nL DMSO, respectively.
Reaction process: A 32 nM of ULK1 (Promega, V3521) solution was formulated, and 2.5 µL/well was transferred to the compound test wells and the negative control wells (NC). 2.5 µL/well of 1× Assay buffer was added to the positive control wells (PC). A mixed solution of 100 µM of ATP and 1.86 µM of MBP was formulated, and 2.5 µL/well was transferred to the reaction plate. After centrifugation, the reaction was initiated and incubated at room temperature for 60 min. After the reaction was completed, 5 µL/well of ADP-Glo Reagent (Promega, V9102) was added to the reaction plate. After centrifugation, the reaction was incubated at room temperature for 40 minutes. Finally, 10 µL/well of Kinase Detection Buffer was added, followed by centrifugation and incubation at room temperature for 30 min. The chemiluminescence value was read using Envision (PE, Envision2105).
Assay buffer: a reaction buffer; and Kinase Detection buffer: a detection buffer, both were taken from the ADP-Glodetection kit, purchased from Promega, model V9102.
The inhibition ratio of a compound on ULK1 activity was calculated using the following formula: [formula]
The dose-effect curve was fitted using the log(inhibitor) vs. response -Variable slope of the analysis software GraphPad Prism 8, thereby affording the IC50 value of each compound for enzyme activity.

Compound	IC50 [nM]
CN1CCN2c3ccc(Nc4ncc(C(F)(F)F)c(OCCCn5nccc5Cl)n4)cc3COCC2C1 (centres unmarked) [Compound 10]	< 100
CN1CCC2(CCN(c3nc(Nc4ccc5c(c4)COCC4CN(C6COC6)CCN54)ncc3C(F)(F)F)C2)C1 (centres unmarked) [Compound 19]	< 100
CN1CCC2(CC1)CCN(c1nc(Nc3ccc4c(c3)COCC3CN(C)CCN43)ncc1C(F)(F)F)CC2 (centres unmarked) [Compound 13]	100 to 1000
CN1CCN2c3ccc(Nc4ncc(C(F)(F)F)c(O[C@H]5CC[C@@H](n6cccn6)CC5)n4)cc3COCC2C1 (some centres unmarked) [Compound 7]	< 100
CN1CCN2c3ccc(Nc4ncc(C(F)(F)F)c(OCCCN5CCCCC5=O)n4)cc3OCCC2C1 (centres unmarked) [Compound 15]	< 100
CN1CCN2c3ccc(Nc4ncc(C(F)(F)F)c(OCCCN5CCCCC5=O)n4)cc3N(C)C(=O)C2C1 (centres unmarked) [Compound 14]	< 100
CN1CCN2c3ccc(Nc4ncc(C(F)(F)F)c(OCCCN5CCCOC5=O)n4)cc3COCC2C1 (centres unmarked) [Compound 16]	< 100
CC(=O)N1CCN2c3ccc(Nc4ncc(C(F)(F)F)c(N5CCC6(CCN(C)C6)C5)n4)cc3COCC2C1 (centres unmarked) [Compound 18]	< 100
